24 compounds from US6989384B2, “Antipicornaviral compounds and compositions, their pharmaceutical uses, and materials for their synthesis” (Agouron Pharmaceuticals, Inc., priority 2000, dated 2006) can be followed below.

For the first assay, the target named is T1, rhinovirus 3C protease from HRV serotype-14 (Human rhinovirus 14, UniProt P03303).
T1 construct: Recombinant rhinovirus 3C proteases; made in house
T1 sequence (P03303 1538-1719): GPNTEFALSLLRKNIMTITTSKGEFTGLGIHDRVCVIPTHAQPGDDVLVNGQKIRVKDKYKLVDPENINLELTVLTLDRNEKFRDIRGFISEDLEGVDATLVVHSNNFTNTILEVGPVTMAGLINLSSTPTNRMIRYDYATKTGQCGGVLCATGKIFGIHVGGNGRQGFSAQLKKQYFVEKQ
The assay can be described thus: Inhibition of rhinovirus 3C protease activity (FRET assay), HRV-14. It counts as biochemical. Particulars: HRV-14 3C protease; progress curves, enzyme start. As for the experimental part: Stock solutions (50 mM, in DMSO) of various compounds were prepared; dilutions were in the same solvent. Recombinant rhinovirus 3C proteases (see Birch et al., “Purification of recombinant human rhinovirus 14 3C protease expressed in Escherichia coli,” Protein Expr. Pur. 1995, 6(5), 609–618) from serotypes 14, 16, and 2 were prepared by the following standard chromatographic procedures: (1) ion exchange using Q Sepharose Fast Flow from Pharmacia; (2) affinity chromatography using Affi-Gel Blue from Biorad; and (3) sizing using Sephadex G-100 from Pharmacia. Each assay sample contained 2% DMSO, 50 mM tris pH 7.6, 1 mM EDTA, a test compound at the indicated concentration, approximately 1 μM substrate, and 50–100 nM protease. The kobs/I values were obtained from reactions initiated by addition of enzyme rather than substrate. RVP activity was measured in the fluorescence resonance energy transfer assay. The substrate was (N-terminal) DABCYL-(Gly-Arg-Ala-Val-Phe-Gln-Gly-Pro-Val-Gly)-EDANS. In the uncleaved peptide, the EDANS fluorescence was quenched by the proximal DABCYL group. When the peptide was cleaved, the quenching was relieved, and activity was measured as an increase in fluorescence signal. In the Table, unless otherwise indicated, all data are for rhinovirus 3C protease from HRV serotype-14 (produced from the infectious cDNA clone constructed by Dr. Robert Rueckert, Institute for Molecular Virology, University of Wisconsin, Madison, Wis.). The data in the column designated kobs/[I] were measured from progress curves in enzyme start experiments.
As for `CCOC(=O)/C=C/[C@H](C[C@@H]1CCNC1=O)NC(=O)c1cc2ccccc2cc1NC(C)=O` [Compound 22, 4S-[(3-acetylamino-naphthalene-2-carbonyl)-amino]-5-(2-oxo-pyrrolidin-3S-yl)-pent-2-enoic acid ethyl ester], the “Protease Inhibition kobs/I” value came to 673 M⁻¹ s⁻¹.

Still in this assay, the particulars now being: HRV-14 3C protease; progress curves, enzyme start; read-out: Protease Inhibition kobs/I.
Turning to `CCOC(=O)/C=C/[C@H](C[C@H]1CCNC1=O)NC(=O)c1ccc2ccccc2c1` [Compound 2, 4S-[(naphthalene-2-carbonyl)-amino]-5-(2-oxo-pyrrolidin-3-R-yl)-pent-2-enoic acid ethyl ester], the kinact/KI was determined as 400 M⁻¹ s⁻¹.
The same measure, in the same setting: to `CCOC(=O)/C=C/[C@H](C[C@@H]1CCNC1=O)NC(=O)c1ccc(C(=O)OC)cc1` [Compound 4, N-[3-ethoxycarbonyl-1S-(2-oxo-pyrrolidin-3R-ylmethyl)-ally]-terephthalamic acid methyl ester] belongs 258 M⁻¹ s⁻¹.
`CCOC(=O)/C=C/[C@H](C[C@@H]1CCNC1=O)NC(=O)/C=C/c1ccc(OC)c(OC)c1` [Compound 5, 4S-[3-(3,4-dimethoxy-phenyl)-acryloylamino]-5-(2-oxo-pyrrolidin-3S-yl)-pent-2-enoic acid ethyl ester]: the kinact/KI was determined as 173 M⁻¹ s⁻¹.
Same read-out and setting: as for `CCOC(=O)/C=C/[C@H](C[C@@H]1CCNC1=O)NC(=O)c1cncc(Br)c1` [Compound 6, 4S-[(5-bromo-pyridine-3-carbonyl)-amino]-5-(2-oxo-pyrrolidin-3S-yl)-pent-2-enoic acid ethyl ester], the figure is 79 M⁻¹ s⁻¹; as for `CCOC(=O)/C=C/[C@H](C[C@@H]1CCNC1=O)NC(=O)c1nc2ccccc2nc1O` [Compound 7, 4S-[(3-hydroxyquinoxaline-2-carbonyl)-amino]-5-(2-oxopyrrolidin-3S-yl)-pent-2-enoic acid ethyl ester], 36 M⁻¹ s⁻¹; as for `CCOC(=O)/C=C/[C@H](C[C@@H]1CCNC1=O)NC(=O)c1nc2ccccc2[nH]1` [Compound 10, 4-[(1H-benzoimidazole-2-carbonyl)-amino]-5-(2-oxo-pyrrolidin-3S-yl)-pent-2-enoic acid ethyl ester], 55 M⁻¹ s⁻¹.
Still for that read-out and setting: to `CCOC(=O)/C=C/[C@H](C[C@@H]1CCNC1=O)NC(=O)/C=C/c1ccc(Cl)cc1` [Compound 11, 4S-[3-(4-chloro-phenyl)-acryloylamino]-5-(2-oxo-pyrrolidin-3S-yl)-pent-2-enoic acid ethyl ester] belongs 750 M⁻¹ s⁻¹; to `CCOC(=O)/C=C/[C@H](C[C@@H]1CCNC1=O)NC(=O)C1CSC(c2ccccc2)N1C(C)=O` (stereo partly drawn) [Compound 13, 4S-[(3-acetyl-2-phenyl-thiazolidine-4-carbonyl)-amino]-5-(2-oxo-pyrrolidin-3S-yl)-pent-2-enoic acid ethyl ester], 169 M⁻¹ s⁻¹; to `CCOC(=O)/C=C/[C@H](C[C@@H]1CCNC1=O)NC(=O)c1cc2cc(Br)ccc2o1` [Compound 14, 4S-[(5-bromo-benzofuran-2-carbonyl)-amino]-5-(2-oxo-pyrrolidin-3S-yl)-pent-2-enoic acid ethyl ester], 219 M⁻¹ s⁻¹.
Still for that read-out and setting: to `CCOC(=O)/C=C/[C@H](C[C@@H]1CCNC1=O)NC(=O)/C=C/c1ccc(OC)cc1` [Compound 16, 4S-[3-(methoxy-phenyl)-acryloylamino]-5-(2-oxo-pyrrolidin-3S-yl)-pent-2-enoic acid ethyl ester] belongs 664 M⁻¹ s⁻¹.
For the compound `CCOC(=O)/C=C/[C@H](C[C@@H]1CCNC1=O)NC(=O)/C=C/c1cccc(O)c1` [Compound 17, 4S-[3-(3-hydroxy-phenyl)-acryloylamino]-5-(2-oxo-pyrrolidin-3S-yl)-pent-2-enoic acid ethyl ester], the kinact/KI was determined as 315 M⁻¹ s⁻¹.
With `CCOC(=O)/C=C/[C@H](C[C@@H]1CCNC1=O)NC(=O)c1ccc2cc(OC)c(OC)cc2c1` [Compound 18, 4S-[(6,7-dimethoxy-naphthalene-2-carbonyl)-amino]-5-(2-oxo-pyrrolidin-3S-yl)-pent-2-enoic acid ethyl ester], the kinact/KI was 262 M⁻¹ s⁻¹.
Still for that read-out and setting: to `CCOC(=O)/C=C/[C@H](C[C@@H]1CCNC1=O)NC(=O)c1cc2ccccc2cc1NC(C)=O` [Compound 22, 4S-[(3-acetylamino-naphthalene-2-carbonyl)-amino]-5-(2-oxo-pyrrolidin-3S-yl)-pent-2-enoic acid ethyl ester] belongs 581 M⁻¹ s⁻¹; to `CCOC(=O)/C=C/[C@H](C[C@@H]1CCNC1=O)NC(=O)c1cc2cc(F)ccc2[nH]1` [Compound 39, 4S-[(5-Fluoro-1H-indole-2-carbonyl)-amino]-5-(2-oxo-pyrrolidin-3S-yl)-pent-2-enoic acid ethyl ester], 615 M⁻¹ s⁻¹; to `CCOC(=O)/C=C/[C@H](C[C@@H]1CCNC1=O)NC(=O)c1cc2cc(Cl)ccc2[nH]1` [Compound 40, 4S-[(5-Chloro-1H-indole-2-carbonyl)-amino]-5-(2-oxo-pyrrolidin-3S-yl)-pent-2-enoic acid ethyl ester], 1270 M⁻¹ s⁻¹.
Same read-out and setting: to `CCOC(=O)/C=C/[C@H](C[C@@H]1CCNC1=O)NC(=O)c1cc2cccc([N+](=O)[O-])c2[nH]1` [Compound 42, 4S-[(7-Nitro-1H-indole-2-carbonyl)-amino]-5-(2-oxo-pyrrolidin-3S-yl)-pent-2-enoic acid ethyl ester] belongs 272 M⁻¹ s⁻¹; to `CCOC(=O)/C=C/[C@H](C[C@@H]1CCNC1=O)NC(=O)c1cc2cc(OC)c(OCc3ccccc3)cc2[nH]1` [Compound 46, 4S-[(6-Benzyloxy-5-methoxy-1H-indole-2-carbonyl)-amino]-5-(2-oxo-pyrrolidin-3S-yl)-pent-2-enoic acid ethyl ester], 1830 M⁻¹ s⁻¹.
Same read-out and setting: to `CCOC(=O)/C=C/[C@H](C[C@@H]1CCNC1=O)NC(=O)c1cc2ccccc2[nH]1` [Compound 47, 4S-[(1H-Indole-2-carbonyl)-amino]-5-(2-oxo-pyrrolidin-3S-yl)-pent-2-enoic acid ethyl ester] belongs 283 M⁻¹ s⁻¹; to `CCOC(=O)/C=C/[C@H](C[C@@H]1CCNC1=O)NC(=O)/C=C/C(=O)Nc1c(C)cc(C)cc1C` [Compound 50, 5-(2-Oxo-pyrrolidin-3S-yl)-4S-[3-(2,4,6-trimethylphenylcarbamoyl)-acryloylamino]-pent-2-enoic acid ethyl ester], 225 M⁻¹ s⁻¹; to `CCOC(=O)/C=C/[C@H](C[C@@H]1CCNC1=O)NC(=O)Nc1ccccc1Oc1ccccc1` [Compound 55, 5-(2-oxo-pyrrolidin-3S-yl)-4S-[3-(2-phenoxy-phenyl)-ureido]-pent-2-enoic acid ethyl ester], 200 M⁻¹ s⁻¹.
For `CCOC(=O)/C=C/[C@H](C[C@@H]1CCNC1=O)NC(=O)Nc1cc(C)cc(C)c1` [Compound 58, 4S-[3-(3,5-dimethyl-phenyl)-ureido]-5-(2-oxo-pyrrolidin-3S-yl)-pent-2-enoic acid ethyl ester], the kinact/KI came out at 185 M⁻¹ s⁻¹.
On the same count and under the same terms, as for `CCOC(=O)/C=C/[C@H](C[C@@H]1CCNC1=O)NC(=O)COc1cccc(OC)c1` [Compound 60, 4S-[2-(3-methoxy-phenoxy)-acetylamino]-5-(2-oxo-pyrrolidin-3S-yl)-pent-2-enoic acid ethyl ester], the figure is 77 M⁻¹ s⁻¹; as for `CCOC(=O)/C=C/[C@H](C[C@@H]1CCNC1=O)NC(=O)COc1cccc(Cl)c1` [Compound 61, 4S-[2-(3-chloro-phenoxy)-acetylamino]-5-(2-oxo-pyrrolidin-35-yl)-pent-2-enoic acid ethyl ester], 103 M⁻¹ s⁻¹; as for `CCOC(=O)/C=C/[C@H](C[C@@H]1CCNC1=O)NC(=O)Cc1cccc(Cl)c1` [Compound 63, 4S-[2-(3-chloro-phenyl)-acetylamino]-5-(2-oxo-pyrrolidin-3S-yl)-pent-2-enoic acid ethyl ester], 7 M⁻¹ s⁻¹.
